Data on one compound can be found in patent publication US20040138160A1, “Preventive/therapeutic method for cancer” (priority 2001, published 2004).

The structures appear in SMILES notation. Some results are limits rather than exact numbers.

Assay [1] concerns HER2 expression human non-parvicellular lung cancer A549 cells. In words: Anti-tumor effect against HER2 expression tumor in nude mouse: A549. The assay is classed as in vivo. The conditions noted are these: HER2 score 1+, dose 20 mg/kg/day orally, divided into two per day, 14 days. On the procedure:
Immediately after transplantation and day 7 after the transplantation, estradiol dipropionate (5 mg/kg solution, 50 μL) was intramuscularly administered to the hind leg with the aim of enhancing the survival rate of the tumor. […] HER2 high expression human gastric cancer cells 4-1ST was a in vivo subcultured tumor and seed tumor piece (ca. 50 mm^3) was subcutaneously transplanted into the nude mouse.
(§1) Formula: tumor volume=longer diameter×shorter diameter×shorter diameter×(1/2)

Assay [2] relates to HER2 high expression human breast cancer cell BT-474. Nature of the assay: Anti-tumor effect, combined use (BT-474 cancer-bearing nude mice). The assay is classed as in vivo, mouse. The text has this:
Formula: Tumor volume=longer diameter×shorter diameter×shorter diameter×(1/2)

Another assay relates to Akt. In words: cells. The note with it: Homo sapiens, BT-474, 2 h, read-out: inhibition of activation of Akt (IC50 value).
Another assay deals with FGFR. The conditions noted are these: read-out: IC50 (μmol/L) FGFR; NIH3T3 cells, FGF 20 ng/mL; compound 2 hr. On the procedure:
(§2) For consideration of the action on a receptor-type tyrosine kinase, A-431 cells or NIH3T3 cells were sown in a 24 multi-well plate (2×10^5 cells/well) and cultured overnight in a carbon dioxide gas incubator (5% CO2, 37° C.). The medium was changed to a serum-free medium and the cells were further incubated for one day. […] The culture medium was removed 5 min later and SDS sample buffer was added to give a cell lysate (200 μL). For consideration of the action on a non-receptor type tyrosine kinase, A431 (Jak1), Jurkat (Src) or Namalwa cells (Blk) were sown in a 6-well multi-well plate (5×10^5 cells/well) and cultured overnight in a carbon dioxide gas incubator (5% CO2, 37° C.).

Another assay relates to PDGFR. The conditions noted are these: read-out: IC50 (μmol/L) PDGFR; NIH3T3 cells, PDGF 20 ng/mL; compound 2 hr. On the procedure: as §2
Assay [3] has as its system tyrosine kinase activity other than HER2. The conditions noted are these: read-out: IC50 value for tyrosine kinase activity other than HER2; in every case (EGFR, FGFR, PDGFR, Jak1, Src, blk). On the procedure: as §2
Assay [4] deals with HER2 non-expression cells (Ma-1). The note with it: cultured 3 days, cells counted. On the procedure: (§3) 1) Cell growth inhibitory action; Each cell line was sown in a 24-well-multi-well plate (5×10^4 cells/well) and cultured overnight in a carbon dioxide gas incubator (5% CO2, 37° C.).
The test system of assay [5] is HER2 expression cells (Ma-46). The note with it: cultured 3 days, cells counted. On the procedure: as §3
The subject of assay [6] is HER2/EGF-R co-expression cells (A549). The conditions noted are these: cultured 3 days, cells counted. Here is the method:
as §3

For the next assay, the system named is MDA-MB-231. The note with it: breast, HER2 score 0; dose 20 mg/kg/day orally, divided into two per day, 14 days. Here is the method:
(§4) An increase in the tumor volume from that before administration to that on the next day of the final administration was compared to that of the control group and an anti-tumor effect was studied. In addition, the tumor volume was calculated from the following equation:
as §1
(§5) A ratio of the value obtained by subtracting a tumor volume on the day of the administration initiation from the tumor volume on the next day of the completion of the administration in the control group, and the value obtained by subtracting the tumor volume on the day of the administration initiation from the tumor volume on the next day of the completion of the administration was determined as a growth rate (T/C (%)).

In the next assay the target is HER2 (Homo sapiens, UniProt P04626). The conditions noted are these: BT-474 tumor in nude mice; 20 mg/kg/day orally 14 days, then 10 mg/kg; tumor sampled four hours later. Here is the method: Four hours later, the tumor was sampled and a tumor homogenate was prepared.
Sequence of HER2 (P04626 23-1255): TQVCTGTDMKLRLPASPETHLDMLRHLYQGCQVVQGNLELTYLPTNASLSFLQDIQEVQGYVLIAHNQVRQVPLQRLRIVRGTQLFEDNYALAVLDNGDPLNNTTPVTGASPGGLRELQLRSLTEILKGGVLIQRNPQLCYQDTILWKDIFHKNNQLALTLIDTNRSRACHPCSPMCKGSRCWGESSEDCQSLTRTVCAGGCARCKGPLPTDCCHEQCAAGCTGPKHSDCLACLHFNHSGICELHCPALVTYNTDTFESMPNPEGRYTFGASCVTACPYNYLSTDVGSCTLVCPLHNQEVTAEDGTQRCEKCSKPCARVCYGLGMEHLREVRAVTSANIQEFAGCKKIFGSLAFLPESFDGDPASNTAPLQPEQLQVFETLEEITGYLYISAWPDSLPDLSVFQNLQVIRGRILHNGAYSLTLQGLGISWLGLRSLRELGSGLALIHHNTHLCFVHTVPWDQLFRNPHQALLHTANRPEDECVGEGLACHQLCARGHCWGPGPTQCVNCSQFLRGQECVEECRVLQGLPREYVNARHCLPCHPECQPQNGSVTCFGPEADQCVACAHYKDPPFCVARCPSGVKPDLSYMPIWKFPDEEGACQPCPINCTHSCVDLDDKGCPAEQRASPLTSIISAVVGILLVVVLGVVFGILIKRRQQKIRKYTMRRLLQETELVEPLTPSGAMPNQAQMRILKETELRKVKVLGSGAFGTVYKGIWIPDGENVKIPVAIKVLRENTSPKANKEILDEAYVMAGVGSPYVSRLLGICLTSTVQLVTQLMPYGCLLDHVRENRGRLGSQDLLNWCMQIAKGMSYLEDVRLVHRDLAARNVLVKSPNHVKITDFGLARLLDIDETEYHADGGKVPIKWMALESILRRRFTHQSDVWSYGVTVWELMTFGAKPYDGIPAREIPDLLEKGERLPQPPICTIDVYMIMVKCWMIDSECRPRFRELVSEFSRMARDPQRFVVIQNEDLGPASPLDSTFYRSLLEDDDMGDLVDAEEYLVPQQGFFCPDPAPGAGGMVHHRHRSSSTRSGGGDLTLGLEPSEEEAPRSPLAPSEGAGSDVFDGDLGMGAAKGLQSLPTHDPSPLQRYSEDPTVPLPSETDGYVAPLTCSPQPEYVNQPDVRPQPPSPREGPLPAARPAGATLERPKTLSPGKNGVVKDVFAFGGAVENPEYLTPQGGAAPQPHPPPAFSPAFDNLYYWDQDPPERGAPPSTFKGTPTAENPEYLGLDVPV
A further assay has as its target Jak1 (Homo sapiens, UniProt P23458). In words: cell-based. On the procedure: as §2
The target in another assay is EGFR (Homo sapiens, UniProt P00533). Nature of the assay: cell-based. Here is the method: as §2
Sequence of EGFR (P00533 25-1210): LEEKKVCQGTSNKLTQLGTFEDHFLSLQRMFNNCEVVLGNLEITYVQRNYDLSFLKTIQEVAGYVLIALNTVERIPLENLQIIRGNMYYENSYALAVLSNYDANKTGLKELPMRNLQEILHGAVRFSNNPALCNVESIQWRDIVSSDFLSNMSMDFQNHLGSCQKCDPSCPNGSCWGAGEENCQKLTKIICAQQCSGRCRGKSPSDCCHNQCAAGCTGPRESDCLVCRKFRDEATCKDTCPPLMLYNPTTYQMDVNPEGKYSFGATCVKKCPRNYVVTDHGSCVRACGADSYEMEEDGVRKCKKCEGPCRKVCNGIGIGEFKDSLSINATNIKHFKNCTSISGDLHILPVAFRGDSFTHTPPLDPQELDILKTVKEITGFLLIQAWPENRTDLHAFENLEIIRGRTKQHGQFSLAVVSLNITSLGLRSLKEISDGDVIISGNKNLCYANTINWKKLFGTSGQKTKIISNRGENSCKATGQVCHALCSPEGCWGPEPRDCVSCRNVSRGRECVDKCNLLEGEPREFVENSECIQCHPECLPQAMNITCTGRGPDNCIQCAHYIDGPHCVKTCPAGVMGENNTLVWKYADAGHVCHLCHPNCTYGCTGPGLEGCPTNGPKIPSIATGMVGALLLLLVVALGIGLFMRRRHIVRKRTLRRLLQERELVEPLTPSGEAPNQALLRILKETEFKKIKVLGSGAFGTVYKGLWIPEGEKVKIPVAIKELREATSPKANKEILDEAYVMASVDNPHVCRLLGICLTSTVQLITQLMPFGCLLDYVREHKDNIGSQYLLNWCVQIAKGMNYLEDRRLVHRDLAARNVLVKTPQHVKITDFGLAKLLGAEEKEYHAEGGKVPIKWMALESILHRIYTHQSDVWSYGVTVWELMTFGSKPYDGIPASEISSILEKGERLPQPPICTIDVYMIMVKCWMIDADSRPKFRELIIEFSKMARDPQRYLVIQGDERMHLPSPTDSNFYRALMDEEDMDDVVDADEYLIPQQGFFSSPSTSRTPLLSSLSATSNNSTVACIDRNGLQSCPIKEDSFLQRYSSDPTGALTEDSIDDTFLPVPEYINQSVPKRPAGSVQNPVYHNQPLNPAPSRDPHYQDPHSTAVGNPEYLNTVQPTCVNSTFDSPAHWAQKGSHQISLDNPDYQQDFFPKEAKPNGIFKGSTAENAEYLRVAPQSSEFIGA
In the next assay the target is blk (Homo sapiens, UniProt P51451). Nature of the assay: cell-based. On the procedure: as §2
Sequence of blk (P51451 whole entry): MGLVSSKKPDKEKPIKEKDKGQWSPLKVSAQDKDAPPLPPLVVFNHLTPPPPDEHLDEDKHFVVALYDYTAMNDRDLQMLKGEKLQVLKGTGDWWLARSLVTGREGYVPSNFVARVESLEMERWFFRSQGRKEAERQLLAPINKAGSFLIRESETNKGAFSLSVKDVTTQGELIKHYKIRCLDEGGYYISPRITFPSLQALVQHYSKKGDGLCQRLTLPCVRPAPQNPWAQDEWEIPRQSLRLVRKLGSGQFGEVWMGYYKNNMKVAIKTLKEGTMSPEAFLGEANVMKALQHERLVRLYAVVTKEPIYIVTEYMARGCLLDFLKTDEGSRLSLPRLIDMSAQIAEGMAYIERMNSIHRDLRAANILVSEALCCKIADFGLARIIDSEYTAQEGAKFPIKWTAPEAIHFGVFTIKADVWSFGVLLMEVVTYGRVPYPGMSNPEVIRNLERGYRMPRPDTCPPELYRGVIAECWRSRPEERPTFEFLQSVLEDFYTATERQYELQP
The test system of assay [7] is HER2 high expression human breast cancer cells BT-474. The note with it: HER2 score 3+, dose 20 mg/kg/day orally, divided into two per day, 14 days. On the procedure:
(§6) Immediately after transplantation and day 7 after the transplantation, estradiol dipropionate (5 mg/kg solution, 50 μL) was intramuscularly administered to the hind leg with the aim of enhancing the survival rate of the tumor. HER2 expression human non-parvicellular lung cancer A549 cells were suspended in Matrigel solution and 5,000,000 cells were subcutaneously transplanted into the chest of female BALB/c nude mouse (6 weeks of age). HER2 expression human kidney cancer ACHN cells (2,000,000 cells) were subcutaneously transplanted into the chest of nude mouse. HER2 high expression human gastric cancer cells 4-1ST was a in vivo subcultured tumor and seed tumor piece (ca. 50 mm^3) was subcutaneously transplanted into the nude mouse.
as §4, §1, §5

Assay [8] concerns HER2 expression human kidney cancer ACHN cells. The note with it: renal, HER2 score 1+; dose 20 mg/kg/day orally, divided into two per day, 14 days. On the procedure:
as §6, §4, §1, §5

For assay [9], the system named is HER2 high expression human gastric cancer cells 4-1ST. The conditions noted are these: HER2 score 3+, dose 15 mg/kg/day orally, divided into two per day, 14 days. Here is the method: as §6, §4, §1, §5
The subject of assay [10] is HER2 high expression human breast cancer cells BT-474. The note with it: 1 μmol/L, cultured ~5 days. Here is the method:
After the culture, the culture medium was removed and a cell suspension was prepared by a trypsin treatment and the cells were fixed with 70% ethanol. The DNA of the cells was stained with propidium iodide and the DNA amount was measured by a flow cytometer. The cells with a decreased amount of DNA are apoptotic (cell death) cells.

Sequence of Jak1 (P23458 whole entry): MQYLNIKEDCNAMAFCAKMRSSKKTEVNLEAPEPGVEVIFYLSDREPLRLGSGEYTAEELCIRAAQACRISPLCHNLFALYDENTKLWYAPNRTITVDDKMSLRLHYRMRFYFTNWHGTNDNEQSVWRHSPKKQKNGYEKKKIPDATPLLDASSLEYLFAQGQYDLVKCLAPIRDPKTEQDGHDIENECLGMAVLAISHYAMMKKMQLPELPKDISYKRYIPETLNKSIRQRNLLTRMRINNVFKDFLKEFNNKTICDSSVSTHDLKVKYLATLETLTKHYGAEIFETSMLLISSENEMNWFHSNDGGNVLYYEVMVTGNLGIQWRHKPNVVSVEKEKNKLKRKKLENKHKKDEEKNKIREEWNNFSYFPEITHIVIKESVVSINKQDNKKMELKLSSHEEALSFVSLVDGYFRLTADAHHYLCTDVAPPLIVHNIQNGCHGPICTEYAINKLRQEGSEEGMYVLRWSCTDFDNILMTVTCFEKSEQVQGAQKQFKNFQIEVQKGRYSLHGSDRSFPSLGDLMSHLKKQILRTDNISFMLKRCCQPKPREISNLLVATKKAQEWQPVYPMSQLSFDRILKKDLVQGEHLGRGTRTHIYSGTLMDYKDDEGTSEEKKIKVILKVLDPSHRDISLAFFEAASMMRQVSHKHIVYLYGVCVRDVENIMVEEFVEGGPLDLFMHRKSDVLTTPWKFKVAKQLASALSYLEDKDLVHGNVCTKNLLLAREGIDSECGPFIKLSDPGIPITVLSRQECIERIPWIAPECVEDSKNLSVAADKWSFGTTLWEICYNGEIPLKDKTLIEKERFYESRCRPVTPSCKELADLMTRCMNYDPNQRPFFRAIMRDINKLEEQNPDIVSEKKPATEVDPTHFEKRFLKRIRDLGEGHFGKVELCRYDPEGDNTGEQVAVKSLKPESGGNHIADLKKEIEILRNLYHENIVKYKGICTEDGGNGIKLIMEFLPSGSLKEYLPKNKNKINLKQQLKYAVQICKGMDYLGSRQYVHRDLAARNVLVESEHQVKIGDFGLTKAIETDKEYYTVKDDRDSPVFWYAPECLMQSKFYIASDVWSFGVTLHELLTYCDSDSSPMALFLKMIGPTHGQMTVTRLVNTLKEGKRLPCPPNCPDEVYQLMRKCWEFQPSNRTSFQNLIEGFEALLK

On to `FC(F)(F)c1ccc(/C=C/c2nc(COc3ccc(CCCCn4ccnn4)cc3)co2)cc1` [Compound B4, 1-(4-{4-[(2-{(E)-2-[4-(trifluoromethyl)phenyl]ethenyl}-1,3-oxazol-4-yl)methoxy]phenyl}butyl)-1H-1,2,3-triazole], for which the “Compound B4 T/C (%), A549” value in [1] came out at 22%. The “growth rate T/C (%)” value in assay [2] (compound B4 20 mg/kg/day orally, divided into two per day, 14 days, trastuzumab 10 mg/kg intraperitoneally twice a week, 2 weeks, or both) is −18%. In addition, the “cases with significant decrease in the tumor volume” value in [2] (same regimens as T/C) was 5 cases out of 5 cases. Further, the “decrease in the tumor volume (% reduction)” value in assay [2] (same regimens as T/C) is 13-30%. The IC50 was 0.0019 µM with Akt; > 25 µmol/L in the assay on FGFR; > 25 µmol/L with PDGFR; > 25 µM in assay [3]; > 25 µM against Jak1; > 25 µM on EGFR. The IC50 on blk was > 25 µM. Further, the “cell growth inhibitory action on HER2 non-expression cells (Ma-1)” value in [4] was “did not show a cell growth inhibitory action”. Moreover, the “cell growth inhibitory action on HER2 expression cells (Ma-46)” value in assay [5] is “strong cell growth inhibitory action”. For the same compound, in [6], the “cell growth inhibitory action on HER2/EGF-R co-expression cells (A549)” value is recorded as “strong cell growth inhibitory action”. The “Compound B4 T/C (%), MDA-MB-231” value with MDA-MB-231 is 87%. Further, at HER2, the “intra-tumor HER2 phosphorylation (per tumor weight), % of the control group” value stood at 13%. In [7], the “Compound B4 T/C (%), BT-474” value is on record as −18%. In addition, the “Compound B4 T/C (%), ACHN” value in assay [8] is listed as −16%. For the same compound, the “Compound B4 T/C (%), 4-1ST” value in assay [9] worked out at 4%. In addition, the cell death induction result in [10] is listed as “induced cell death”.
